According to patent US7749980B2, “Non-nucleotide compositions and method for treating pain” (Inspire Pharmaceuticals, Inc., priority 2003, dated 2010):

Tested on: mice
Assay: acetic acid-induced abdominal constriction assay for visceral pain in mice
Type: in vivo
Details: for number of averaged abdominal constrictions during the observation time interval compared to saline control: 50 mg/kg i.p. in physiological saline, 10 minutes prior to i.p. 0.9% acetic acid, 10 minutes of observation starting 5 minutes after acetic acid, statistical difference versus saline control group; for pharmacological effect over saline vehicle control in reducing the abdominal constrictions induced by 0.9% acetic acid: similar studies, dose dependence
Description: The method employed is a modification of the abdominal constriction test described by Collier, et. al (Collier, et al., Br. J. Pharmacol. Chemother. 32: 295-310 (1968)). For the rest of the example, compound: 6-(phenylureido)purine-2′, 3′-(4-ethylcyclohexylspiroketyl)-5′-nicotinyl-ribofuranoside is named “Compound A” and {6-[6-(Cyclohexylmethyl-amino)-purin-9-yl]-2-isobutyl-tetrahydro-furo[3,4-d][1,3]dioxol-4-yl}-methanol is named “Compound B”.
Briefly, a group of eight mice is designated as the control group, and each of said mice in the group receives an intraperitoneal (i.p.) injection of physiological saline in a dose-volume: mouse-weight ratio of 5 mL/kg ten minutes prior to an i.p. injection of 0.9% acetic acid in physiological saline in a dose-volume: mouse-weight ratio of 10 mL/kg. Each of said mice in the control group is placed in its own observation chamber shortly after the acetic acid injection and is allowed to explore. Each testing period starts 5 minutes after the acetic acid injection into a mouse, and consists of 10 minutes of observation during which time the number of abdominal constrictions of the mouse are counted. Abdominal constriction is defined as a lengthwise stretching of the torso with concave arching of the back. An average number of total constrictions per mouse per observation time is calculated from mice in the control group, and this indicates a baseline level of pain response in the control group animals.
Compound A is administered i.p., at a dose of 50 mg/kg suspended in a volume of physiological saline (5 mL/kg), 10 minutes prior to the administration of acetic acid, as described for the control group above.
Compound B is administered i.p., at a dose of 50 mg/kg suspended in a volume of physiological saline (5 mL/kg), 10 minutes prior to the administration of acetic acid, as described for the control group above.

| Compound | number of averaged abdominal constrictions during the observation time interval compared to saline control | pharmacological effect over saline vehicle control in reducing the abdominal constrictions induced by 0.9% acetic acid |
| --- | --- | --- |
| CC(C)CC1OC2C(CO)OC(n3cnc4c(NCC5CCCCC5)ncnc43)C2O1 (stereo not shown) [Compound B, {6-[6-(Cyclohexylmethyl-amino)-purin-9-yl]-2-isobutyl-tetrahydro-furo[3,4-d][1,3]dioxol-4-yl}-methanol] | lower | dose dependent pharmacological effect |
| 6-(phenylureido)purine-2′, 3′-(4-ethylcyclohexylspiroketyl)-5′-nicotinyl-ribofuranoside [Compound A] | lower | dose dependent pharmacological effect |
